Patent US6084072A, “Purified lectin and methods of use” (The Regents of the University of Michigan, priority 1993, dated 2000)
Values joined by “and” are separate entries in the source; they are usually repeats but may differ in a detail not shown here. Equal entries are not always repeated.

Key:
[1] = test system: human red blood cells (A, B, and O); experiment: Hemagglutination; type: cell-based
Description: In the hemagglutination procedure, red blood cells were washed and resuspended to make a 2% suspension in phosphate buffered saline. The lectin solution was serially diluted in microliter plates followed by the addition of the 2% red blood cell suspension. Hemagglutination was observed after 1 hour at room temperature. One hemagglutination unit (HU) is defined as the minimum amount of amaranthin to completely agglutinate cells and is equivalent to a lectin concentration of 2 μg/ml.

[2] = test system: asialo-ovine submaxillary mucin; experiment: Metal analysis of amaranthin activity in the precipitation assay; type: binding
Description: For metal analysis two methods were used to determine if metals were necessary for amaranthin activity. 1) Amaranthin was dialyzed against 1 N acetic acid at 4° C. overnight, and then against 20 mM phosphate buffer at pH 7.2. The acid dialyzed amaranthin was then used in the standard precipitation assay with asialo-ovine submaxillary mucin and the indicated additions. 2) After dialysis into metal free buffer, amaranthin was incubated for 1 hour at room temperature in the presence of the indicated ethylene diamine tetraacetate (EDTA) concentrations. Asialo-ovine submaxillary mucin was then added, and the precipitation assay was carried out as usual. All glassware was acid-washed and buffers were passed over a Chelex 100 column, a trademarked, column commercially available from Bio-Rad to remove divalent metal ions.

[3] = test system: adenomatous colonic polyps; experiment: Lectin histochemistry, adenomatous colonic polyps; type: binding, human; settings: glands in adenomatous polyps; mean ± SEM; listed as ACA
Source text: Specimens of adenocarcinoma of the colon and adenomatious colonic polyps from resected specimens were obtained from the Pathology Service at the Ann Arbor Veterans Administration Medical Center. These specimens were obtained at surgery or at colonoscopic polypectomy, fixed in buffered formalin, and embedded in paraffin for routine pathological examination. Additional four micron sections were cut for lectin histochemistry after the pathological diagnosis was confirmed.
Four micron paraffin embedded tissue sections attached to glass slides were deparaffinized by serial incubations in xylene (twice), absolute ethanol (thrice), 95% ethanol, 70% ethanol, water and finally equilibrated in phosphate buffered saline (PBS), pH 7.0, containing 0.1% bovine serum albumin (BSA) commercially available from Sigma Corp of St. Louis, Mo. The slides were blotted dry adjacent to the tissue sections, and biotinylated lectin was added at a concentration of 10 μg/ml (for ACA) and 20 μg/ml (for PNA) in a quantity sufficient to completely cover the hydrated tissue (100-2001 μl). The lectin was rinsed off after a 30 minute incubation by eight 2-second dips into phosphate buffered saline. The slides were again blotted, and the tissue covered with Streptavidin-horseradish peroxidase (HRP) obtained from Zymed Laboratories, San Francisco, Calif. at a concentration of 10 μg/ml for 30 minutes. […]

amaranthin
agglutination of A, B, O red blood cells, in words [1]: does and No difference was observed | minimum amount to completely agglutinate cells (one HU) ([1]; 2% red blood cell suspension, 1 hour at room temperature): 2 µg/mL | % Control reactivity ([2]; 5 mM EDTA): 100% | % Control reactivity ([2]; 25 mM EDTA): 100% | % Control reactivity ([2]; Acid dialyzed amaranthin & AOSM): 81% | % Control reactivity ([2]; Acid dialyzed amaranthin & AOSM, 0.1 mM CaCl2): 80% | % Control reactivity ([2]; Acid dialyzed amaranthin & AOSM, 0.1 mM MgCl2): 80% | % Control reactivity ([2]; Acid dialyzed amaranthin & AOSM, 0.1 mM MnCl2): 79% | effect of EDTA on precipitating activity, in words ([2]; ethylene diamine tetra acetate 5-25 mM): had no effect | Percent of Epithelial Units Labeled [3]: 82±7% and 82%±7% and 82 + 7%
